# Experimental data as given in ChEMBL document CHEMBL3124938, “Synthesis and biological evaluation of positron emission tomography radiotracers targeting serotonin 4 receptors in brain: [18F]MNI-698 and [18F]MNI-699” (Bioorg Med Chem Lett, 2013).
# What was measured:
# [1] = target: T1, 5-hydroxytryptamine receptor 4 (Rattus norvegicus, UniProt Q62758); experiment: Binding affinity to 5HT4 receptor in rat striatal membranes; type: cell membranes, Striatum, Membrane
# [2] = target: T1, 5-hydroxytryptamine receptor 4; experiment: Displacement of [3H]GR113808 from 5HT4 receptor in Sprague-Dawley rat striatal membranes after 1 hr by […]; design: species or system Striatum, Membrane
# [3] = Drug uptake in rhesus monkey globus pallidus at 166.6 +/- 11.9 MBq, iv by PET analysis; type: ADME, organism-based, Macaca mulatta; details: in vivo
# [4] = Drug uptake in rhesus monkey occipital cortex at 166.6 +/- 11.9 MBq, iv by PET analysis; type: ADME, organism-based, Macaca mulatta; details: in vivo
# [5] = Octanol-buffer partition coefficient, log D of the compound at pH 7.4 by shake flask method; type: physicochemical
# [6] = Drug uptake in rhesus monkey thalamus at 166.6 +/- 11.9 MBq, iv by PET analysis; type: ADME, organism-based, Macaca mulatta; details: in vivo
# [7] = Drug uptake in rhesus monkey parietal cortex at 166.6 +/- 11.9 MBq, iv by PET analysis; type: ADME, organism-based, Macaca mulatta; details: in vivo
# Hippocampus [8] = experiment: Drug uptake in rhesus monkey hippocampus at 166.6 +/- 11.9 MBq, iv by PET analysis; type: ADME, organism-based, Macaca mulatta; details: in vivo
# Striatum [9] = experiment: Drug uptake in rhesus monkey striatum at 166.6 +/- 11.9 MBq, iv by PET analysis; type: ADME, organism-based, Macaca mulatta; details: in vivo
# [10] = Drug uptake in rhesus monkey cerebellum at 166.6 +/- 11.9 MBq, iv by PET analysis; type: ADME, organism-based, Macaca mulatta; details: in vivo
# [11] = Standardized uptake value ratio in rhesus monkey putamen at 166.6 +/- 11.9 MBq, iv by PET analysis; type: ADME, organism-based, Macaca mulatta; details: in vivo
# [12] = Drug uptake in rhesus monkey substantia nigra at 166.6 +/- 11.9 MBq, iv by PET analysis; type: ADME, organism-based, Macaca mulatta; details: in vivo
# Brain = experiment: Drug uptake in rhesus monkey brain at 166.6 +/- 11.9 MBq, iv after 20 mins by PET analysis; type: ADME, organism-based, Macaca mulatta; details: in vivo
# [13] = Standardized uptake value ratio in rhesus monkey caudate at 166.6 +/- 11.9 MBq, iv by PET analysis; type: ADME, organism-based, Macaca mulatta; details: in vivo
# [14] = Standardized uptake value ratio in rhesus monkey globus pallidus at 166.6 +/- 11.9 MBq, iv by PET analysis; type: ADME, organism-based, Macaca mulatta; details: in vivo
# [15] = Standardized uptake value ratio in rhesus monkey substantia nigra at 166.6 +/- 11.9 MBq, iv by PET analysis; type: ADME, organism-based, Macaca mulatta; details: in vivo
# [16] = Drug uptake in rhesus monkey temporal cortex at 166.6 +/- 11.9 MBq, iv by PET analysis; type: ADME, organism-based, Macaca mulatta; details: in vivo
# Hippocampus [17] = experiment: Standardized uptake value ratio in rhesus monkey hippocampus at 166.6 +/- 11.9 MBq, iv by PET analysis; type: ADME, organism-based, Macaca mulatta; details: in vivo
# [18] = Drug uptake in rhesus monkey putamen at 166.6 +/- 11.9 MBq, iv by PET analysis; type: ADME, organism-based, Macaca mulatta; details: in vivo
# Striatum [19] = experiment: Standardized uptake value ratio in rhesus monkey striatum at 166.6 +/- 11.9 MBq, iv by PET analysis; type: ADME, organism-based, Macaca mulatta; details: in vivo
# [20] = Drug uptake in rhesus monkey frontal cortex at 166.6 +/- 11.9 MBq, iv by PET analysis; type: ADME, organism-based, Macaca mulatta; details: in vivo
# [21] = Drug uptake in rhesus monkey caudate at 166.6 +/- 11.9 MBq, iv by PET analysis; type: ADME, organism-based, Macaca mulatta; details: in vivo
# [22] = target: Serotonin 4 (5-HT4) receptor (Sus scrofa, UniProt Q6Q253); experiment: Binding affinity to 5HT4 receptor in pig striatal membranes; type: cell membranes, Striatum, Membrane
# [23] = target: 5-hydroxytryptamine receptor 4 (Cavia porcellus, UniProt O70528); experiment: Binding affinity to 5HT4 receptor in guinea pig distal colon
# Rhesus monkey = experiment: Ex vivo receptor occupancy of 5HT4 receptor in rhesus monkey at 0.5 mg/kg; type: functional, Macaca mulatta
# T1 sequence (Q62758 whole entry): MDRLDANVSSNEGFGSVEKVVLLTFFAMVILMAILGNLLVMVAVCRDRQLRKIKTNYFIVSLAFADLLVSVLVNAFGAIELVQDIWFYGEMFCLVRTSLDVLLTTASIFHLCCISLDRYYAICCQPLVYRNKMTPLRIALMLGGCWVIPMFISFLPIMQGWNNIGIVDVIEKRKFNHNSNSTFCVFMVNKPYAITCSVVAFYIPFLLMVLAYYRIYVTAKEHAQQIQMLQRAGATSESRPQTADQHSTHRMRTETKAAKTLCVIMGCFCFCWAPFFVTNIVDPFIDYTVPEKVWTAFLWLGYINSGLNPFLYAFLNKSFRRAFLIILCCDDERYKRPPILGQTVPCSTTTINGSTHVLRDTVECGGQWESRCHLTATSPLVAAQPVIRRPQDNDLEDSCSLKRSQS
# Sequence of 5-hydroxytryptamine receptor 4 (Cavia porcellus, UniProt O70528) (O70528 whole entry): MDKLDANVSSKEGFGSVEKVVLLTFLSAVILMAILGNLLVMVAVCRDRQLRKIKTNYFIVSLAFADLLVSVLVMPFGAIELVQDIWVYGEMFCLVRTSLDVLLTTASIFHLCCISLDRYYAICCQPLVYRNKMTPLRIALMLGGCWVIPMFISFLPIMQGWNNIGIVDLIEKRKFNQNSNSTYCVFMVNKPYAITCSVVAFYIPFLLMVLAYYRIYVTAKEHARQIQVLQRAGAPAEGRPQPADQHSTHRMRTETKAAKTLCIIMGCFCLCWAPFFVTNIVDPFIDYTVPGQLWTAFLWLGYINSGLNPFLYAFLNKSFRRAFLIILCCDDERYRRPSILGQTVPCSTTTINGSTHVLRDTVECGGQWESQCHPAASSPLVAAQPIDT
# Sequence of Serotonin 4 (5-HT4) receptor (Q6Q253 whole entry): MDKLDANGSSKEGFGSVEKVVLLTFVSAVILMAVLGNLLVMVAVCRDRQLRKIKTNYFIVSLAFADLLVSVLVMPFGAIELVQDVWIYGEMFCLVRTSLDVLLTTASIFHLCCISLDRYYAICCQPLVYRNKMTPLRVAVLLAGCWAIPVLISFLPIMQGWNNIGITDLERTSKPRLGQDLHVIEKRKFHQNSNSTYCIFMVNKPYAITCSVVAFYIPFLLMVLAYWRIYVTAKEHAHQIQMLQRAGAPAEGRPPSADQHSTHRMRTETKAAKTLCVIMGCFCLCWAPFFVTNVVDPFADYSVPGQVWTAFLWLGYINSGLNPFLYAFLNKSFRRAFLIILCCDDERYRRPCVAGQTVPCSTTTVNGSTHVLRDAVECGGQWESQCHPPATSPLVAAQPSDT
compound,measurement,setting,value
CCCCN1CCC(COC(=O)c2cc(I)c(N)c3c2OCCO3)CC1,Kd,[1],300 pM
Nc1c(Cl)cc(C(=O)OCC2CCN(CCCF)CC2)c2c1OCCO2,Ki,[2],70 pM
Nc1c(Cl)cc(C(=O)OCC2CCN(CCF)CC2)c2c1OCCO2,Ki,[2],200 pM
Nc1c(Cl)cc(C(=O)OCC2CCN(CCC[18F])CC2)c2c1OCCO2,Drug uptake,[3],Active
same,Drug uptake,[4],Active
same,logD,[5],1.4
same,Drug uptake,[6],Active
same,Drug uptake,[7],Active
same,Drug uptake,Hippocampus [8],Active
same,Drug uptake,Striatum [9],Active
same,Drug uptake,[10],Active
same,SUV,[11],3
same,Drug uptake,[12],Active
same,Drug uptake,Brain,5.6 %ID
same,SUV,[13],3
same,SUV,[14],3
same,SUV,[15],3
same,Drug uptake,[16],Active
same,SUV,Hippocampus [17],3
same,Drug uptake,[18],Active
same,SUV,Striatum [19],3
same,Drug uptake,[20],Active
same,Drug uptake,[21],Active
Nc1c(Cl)cc(C(=O)OCC2CCN(CC[18F])CC2)c2c1OCCO2,Drug uptake,[3],Active
same,Drug uptake,[4],Active
same,logD,[5],1.8
same,Drug uptake,[6],Active
same,Drug uptake,[7],Active
same,Drug uptake,Hippocampus [8],Active
same,Drug uptake,Striatum [9],Active
same,Drug uptake,[10],Active
same,SUV,[11],3
same,Drug uptake,[12],Active
same,Drug uptake,Brain,6.6 %ID
same,SUV,[13],3
same,SUV,[14],3
same,SUV,[15],3
same,Drug uptake,[16],Active
same,SUV,Hippocampus [17],3
same,Drug uptake,[18],Active
same,SUV,Striatum [19],3
same,Drug uptake,[20],Active
same,Drug uptake,[21],Active
CN1CCC(COC(=O)c2cc(Cl)c(N)c3c2OCCO3)CC1,Kd,[22],80 pM
same,Kd,[1],300 pM
CCCCN1CCC(COC(=O)c2cc(Cl)c(N)c3c2OCCO3)CC1,Kd,[23],20 pM
same,Activity,Rhesus monkey,93%
